Source: US20070078125A1, “Arylamine mch r1 antagonists” (GLAXO GROUP LIMITED, priority 2003, published 2007)
pIC50: −log10 of the molar value.

How the values were obtained:
hERG potassium channel = target: T1, hERG potassium channel (Homo sapiens, UniProt Q12809); test: hERG whole cell patch clamp, tail current inhibition in HEK-293 cells; type: cell-based; conditions: tail current at −40 mV, room temperature; for inhibition at 3 µM: human, pH 7.4, 3 μM, read-out: hERG Inhibition, % inhib. @ 3 μM
T1 construct: expressed in transfected cells; host or cells: HEK-293 cells, BacMam viral expression system
T1 sequence (Q12809 whole entry): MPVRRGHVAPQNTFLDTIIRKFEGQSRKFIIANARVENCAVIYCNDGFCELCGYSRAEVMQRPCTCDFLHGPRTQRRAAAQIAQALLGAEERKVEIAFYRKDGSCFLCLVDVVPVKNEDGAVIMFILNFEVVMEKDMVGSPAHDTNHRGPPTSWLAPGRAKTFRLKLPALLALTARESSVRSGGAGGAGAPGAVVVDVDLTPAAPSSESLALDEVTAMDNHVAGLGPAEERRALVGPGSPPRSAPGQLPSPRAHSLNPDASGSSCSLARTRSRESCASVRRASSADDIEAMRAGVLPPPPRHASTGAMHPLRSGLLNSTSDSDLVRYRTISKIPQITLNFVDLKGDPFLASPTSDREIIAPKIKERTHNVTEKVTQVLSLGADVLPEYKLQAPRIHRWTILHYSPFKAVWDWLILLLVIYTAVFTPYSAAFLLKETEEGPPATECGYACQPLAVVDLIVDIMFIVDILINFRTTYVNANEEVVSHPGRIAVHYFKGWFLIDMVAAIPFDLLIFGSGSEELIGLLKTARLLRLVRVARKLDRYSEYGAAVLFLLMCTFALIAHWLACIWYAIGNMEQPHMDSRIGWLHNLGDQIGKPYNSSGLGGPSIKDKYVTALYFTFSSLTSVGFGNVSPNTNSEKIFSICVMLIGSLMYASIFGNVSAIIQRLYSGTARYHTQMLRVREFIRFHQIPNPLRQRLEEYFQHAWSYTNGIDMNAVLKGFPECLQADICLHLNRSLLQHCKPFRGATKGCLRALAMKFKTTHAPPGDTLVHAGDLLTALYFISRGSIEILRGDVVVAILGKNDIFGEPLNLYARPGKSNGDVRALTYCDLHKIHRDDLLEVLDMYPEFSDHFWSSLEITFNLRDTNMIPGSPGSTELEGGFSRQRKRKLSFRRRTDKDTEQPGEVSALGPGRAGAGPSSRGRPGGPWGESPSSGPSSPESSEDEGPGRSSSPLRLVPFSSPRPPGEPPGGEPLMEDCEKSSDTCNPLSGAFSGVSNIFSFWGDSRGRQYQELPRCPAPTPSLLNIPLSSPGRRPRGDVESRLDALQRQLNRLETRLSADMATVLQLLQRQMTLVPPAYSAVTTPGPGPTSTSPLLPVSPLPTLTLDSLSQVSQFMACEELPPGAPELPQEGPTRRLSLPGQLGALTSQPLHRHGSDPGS
Protocol: The comparison was carried out as follows. The hERG potassium channels were transiently expressed in HEK-293 cells using the Bacmam viral expression system (Kost et al, 2000: Pfohl et al, 2001). The HEK-293 cells were maintained in cell media comprised of D-MEM/F12, 10% fetal bovine serum, penicillin G sodium 100 units/mL, and streptomycin sulfate 100 μg/mL. Cells were grown to confluency in flasks and were rinsed once with PBS prior to passage. The flasks were incubated with VERSENE (EDTA) 1:5000 for 5 minutes at 37° C. to detach the cells from the flasks. Cells used in electrophysiology experiments were plated on glass coverslips and transfected 24 to 72 hours prior to use.
hERG channels were studied using the whole cell mode of the patch clamp technique (Hamill et al., 1981). The pipette solution contained 145 mM K+Aspartate, 11 mM EGTA, 5 mM NaCl, 5 mM MgATP, 5 mM HEPES, pH 7.4, and the bath solution contained 145 mM NaCl, 4 mM KCl, 2 mM CaCl2, 1 mM MgCl2, 10 mM HEPES, 10 mM d-glucose pH 7.4. To measure drug effects, the cells were held at −80 mV, then stepped to +20 mV for 400 ms followed by a second pulse to −40 mV so that the outward tail current characteristic of hERG could be measured. […] This pulse protocol was repeated at ten-second intervals during the superfusion of the test article diluted in the bath solution. The inhibition of hERG was determined by measuring the peak amplitude of the tail currents at −40 mV before and after compound application. The half-maximal inhibitory concentration (IC50) was determined from a curve fit of Hill equation to the data points. […] All experiments were conducted at room temperature (approximately 25° C.).

MCH R1 = target: T2, MCH R1 (Homo sapiens, UniProt Q99705); test: functional antagonist assay of MCH R1 (elkgal4-luc+ reporter gene, CHO cells, inhibition of MCH EC80 response); type: cell-based; conditions: MCH1R-elkgal4-luc+ CHO cells, read-out: MCH R1 pIC50 (converted)
T2 construct: expressed in transfected cells; host or cells: CHO cells stably expressing elkgal4-luc+ reporter gene (CHO-K1, ATCC)
T2 sequence (Q99705 whole entry, the tested form may be a part): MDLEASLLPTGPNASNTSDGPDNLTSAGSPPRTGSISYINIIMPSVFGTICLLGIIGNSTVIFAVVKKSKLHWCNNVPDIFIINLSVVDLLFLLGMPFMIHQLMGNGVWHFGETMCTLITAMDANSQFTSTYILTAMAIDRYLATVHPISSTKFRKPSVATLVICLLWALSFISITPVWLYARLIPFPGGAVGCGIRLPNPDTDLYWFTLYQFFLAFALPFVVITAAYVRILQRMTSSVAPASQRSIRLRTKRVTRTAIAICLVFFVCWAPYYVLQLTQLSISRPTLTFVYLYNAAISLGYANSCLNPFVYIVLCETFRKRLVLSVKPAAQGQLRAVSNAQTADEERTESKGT
Description: The activity of the compounds used in this invention may be assessed in a functional assay of MCH R1 as follows:
Black, 96-well, tissue culture-treated plates (#3904) were obtained from Corning Costar, (Cambridge, Mass.), LucPlus™ Luciferase Reporter Gene Assay Kit (# 6016969) was from Packard (Meriden, Conn.), plate seals (#097-05-00006) were from Beckman/Sagian (Fullerton, Calif.). DMEM/F12 medium (#11039-021), fetal bovine serum (# 16140-071), L-glutamine (#25030-081), 0.05% trypsin (# 25300-054), G418 (#10131-035) and dPBS (#4190-144) were obtained from Gibco BRL (Gaithersburg, Md.). […]
CHO cells, stably expressing an elkgal4-luc^+ reporter gene (host) were transfected by electroporation with the human melanin-concentrating hormone one receptor. […] Plates were sealed and subjected to dark adaptation at room temperature for 10 minutes before luciferase activity was quantitated on a TopCount™ microplate scintillation counter (Packard) using 3 seconds/well count time. The ability of the antagonist to inhibit the MCH EC80 response was quantified by non-linear regression analysis using a curve-fitting program based in Microsoft ExCel. Specificity of the MCH R1 response was determined using the same protocol by measuring the ability of said antagonists to inhibit an EC80 thrombin response (endogenous) in the host cells.

Row | IC50 (MCH R1) [nM] | SMILES | inhibition at 3 µM (hERG potassium channel) [%] | pIC50 (hERG potassium channel)
1 | – | COc1cc(-n2cnc3cc(-c4ccc(Cl)cc4)sc3c2=O)ccc1OCCN1CC[C@H](O)C1 [Comparison Example 1] | 62 | 5.70
2 | – | COc1cc(-n2cnc3cc(-c4ccc(Cl)cc4)sc3c2=O)ccc1OCCN1CC[C@@H](O)C1 [Comparison Example 2] | 90 | –
3 | – | COc1cc(-n2cnc3cc(-c4ccc(Cl)cc4)sc3c2=O)ccc1OCCCN1CC[C@@H](O)C1 [Comparison Example 3] | 84 | –
4 | 2.51 | COc1cc(-n2cnc3cc(-c4ccc(Cl)cc4)sc3c2=O)ccc1N1CC[C@@H](O)C1 [Example 1, 6-(4-chlorophenyl)-3-{4-[(3R)-3-hydroxypyrrolidin-1-yl]-3-methoxyphenyl}thieno[3,2-d]pyrimidin-4(3H)-one] | – | –
5 | 2 | COc1cc(-n2cnc3cc(-c4ccc(Cl)cc4)sc3c2=O)ccc1N1CC[C@H](O)C1 [Example 4, 6-(4-chlorophenyl)-3-{4-[(3S)-3-hydroxypyrrolidin-1-yl]-3-methoxyphenyl}thieno[3,2-d]pyrimidin-4(3H)-one] | – | –
